Legend:
[1] = test system: Y2301 ScCYP51 Y140F mutant; assay: Agarose (disk) diffusion assay, strain Y2301; format: cell-based, S. cerevisiae; conditions: 10 nmol/disk, 30 °C, 48 h
From the text: (§1) Final compounds were screened as racemic mixtures using agarose diffusion assays to visualize their inhibitory activity against a panel of recombinant S. cerevisiae strains i.e., S. cerevisiae strains expressing control levels of wild-type CYP51 (ScCYP51), overexpressed wild-type ScCYP51, overexpressed azole-resistant ScCYP51 Y140F/H mutations and overexpressed C. albicans efflux pumps MDR1a or CDR1B (Figure and Table S1).
(§2) The susceptibilities of S. cerevisiae and Candida species strains to azole compounds were observed as zones of growth inhibition in agarose diffusion assays. The disk diffusion assays were carried out as described by Keniya et al. Complete supplement mixture (CSM) agarose (0.6% agarose [wt/vol]; 20 mL of synthetic defined medium (SD); pH 6.8–7) was solidified in a rectangular Petri dish which was overlaid with CSM agarose (0.6% [wt/vol]; 5 mL; pH 6.8–7) seeded with yeast cells at an optical density (OD600) of 0.008 (118,000 cells per 1 mL of overlay). Azole compounds (10 nmol/disk) were applied to sterile BBL paper disks (Becton Dickinson Co., Sparks, MD) and placed on solidified overlays. Cell growth was assessed after incubation at 30 °C for 48 h.

[2] = test system: Y2513 ScCYP51 Y140H mutant; assay: Agarose (disk) diffusion assay, strain Y2513; format: cell-based, S. cerevisiae; conditions: 10 nmol/disk, 30 °C, 48 h
From the text: as §1, §2

[3] = test system: Y610 FHB1; assay: MIC80 determination, C. albicans clinical isolate Y610 FHB1; format: cell-based; conditions: Candida albicans; C. albicans clinical isolate Y610 FHB1 (weakly expresses CaCDR1); pH 7, 24 h
Description: (§3) Cells were seeded at an OD600 nm of 0.005 (1.5 × 10^4 CFU), and the plates were incubated at 30 °C with shaking at 200 rpm for 48 h for S. cerevisiae strains and 24 h for C. albicans . Cell growth was assessed by measuring the OD600 nm using a Synergy 2 multimode plate reader (BioTek Instruments, VT, USA). Each MIC80 was determined using triplicate measurements for pools of 4 clones of each strain in three separate experiments.

[4] = test system: Y71 SC5314; assay: MIC80 determination, C. albicans clinical isolate Y71 SC5314; format: cell-based; conditions: Candida albicans; for MIC: SC5314, supplement csv; for MIC80: C. albicans clinical isolate Y71 SC5314, pH 7, 24 h
Description: as §3

[5] = test system: Y433 OE CgCDR1; assay: MIC80 determination, strain Y433; format: cell-based, S. cerevisiae; conditions: Saccharomyces cerevisiae
Description: as §3

[6] = test system: Y2721 OE CpCYP51; assay: MIC80 determination, strain Y2721; format: cell-based, S. cerevisiae; conditions: for MIC80: Saccharomyces cerevisiae; for MIC: read-out: MIC (nM) C. parapsilosis model Y2721
Description: as §3

[7] = test system: Y2459 OE CaCYP51 CaCpr; assay: MIC80 determination, strain Y2459; format: cell-based, S. cerevisiae; conditions: for MIC80: Saccharomyces cerevisiae, 48 h, pH 6.8; for MIC: read-out: MIC (nM) C. albicans model Y2459
Description: as §3

[8] = test system: Y1; assay: MIC80 determination, C. albicans clinical isolate Y1; format: cell-based; conditions: Candida albicans, pH 7, 24 h
Description: as §3

[9] = test system: Y2300 OE ScCYP51; assay: MIC80 determination, strain Y2300; format: cell-based, S. cerevisiae; conditions: Saccharomyces cerevisiae; for MIC80: 48 h, pH 6.8; for MIC: read-out: MIC (nM) S. cerevisiae Y2300
Description: as §3

[10] = test system: Y2651 OE CYP51 F5 RaCPR; assay: MIC80 determination, strain Y2651; format: cell-based, S. cerevisiae; conditions: Saccharomyces cerevisiae
Description: as §3

[11] = test system: Y2301 OE ScCYP51 Y140F; assay: MIC80 determination, strain Y2301; format: cell-based, S. cerevisiae; conditions: Saccharomyces cerevisiae; for MIC80: 48 h, pH 6.8; for MIC: read-out: MIC (nM) S. cerevisiae Y2301
Description: as §3

[12] = test system: Y611 FHB3; assay: MIC80 determination, C. albicans clinical isolate Y611 FHB3; format: cell-based; conditions: Candida albicans, 24 h, pH 7
Description: as §3

[13] = test system: Y2747 OE AfCYP51B AfCPR AfERG6; assay: MIC80 determination, strain Y2747; format: cell-based, S. cerevisiae; conditions: for MIC: Aspergillus fumigatus, read-out: MIC (nM) A. fumigatus model Y2747; for MIC80: Saccharomyces cerevisiae
Description: as §3

[14] = test system: Y2374 OE CgCYP51; assay: MIC80 determination, strain Y2374; format: cell-based, S. cerevisiae; conditions: Saccharomyces cerevisiae; for MIC: read-out: MIC (nM) C. glabrate model Y2374
Description: as §3

[15] = test system: Y525 OE CaMDR1a; assay: MIC80 determination, strain Y525; format: cell-based, S. cerevisiae; conditions: for MIC80: Saccharomyces cerevisiae, 48 h, pH 6.8; for MIC: read-out: MIC (nM) C. albicans model Y525
Description: as §3

[16] = test system: Y2649 OE CYP51 F1 RaCPR; assay: MIC80 determination, strain Y2649; format: cell-based, S. cerevisiae; conditions: for MIC: Rhizopus arrhizus, read-out: MIC (nM) R. arrhizus model Y2649; for MIC80: Saccharomyces cerevisiae
Description: as §3

[17] = test system: Y2513 OE ScCYP51 Y140H; assay: MIC80 determination, strain Y2513; format: cell-based, S. cerevisiae; conditions: Saccharomyces cerevisiae; for MIC80: 48 h, pH 6.8; for MIC: read-out: MIC (nM) S. cerevisiae Y2513
Description: as §3

[18] = test system: Y2716 OE CpCYP51 Y132F; assay: MIC80 determination, strain Y2716; format: cell-based, S. cerevisiae; conditions: for increase in resistance owing to the CpCYP51 Y132F mutation: MIC80 Y2716 versus Y2721; for MIC80: Saccharomyces cerevisiae
Description: as §3

[19] = test system: Y2746 OE AfCYP51A AfCPR AfERG6; assay: MIC80 determination, strain Y2746; format: cell-based, S. cerevisiae; conditions: Saccharomyces cerevisiae
Description: as §3

[20] = test system: 2711 CnCYP51 OE CnCPR; assay: MIC80 determination, strain 2711; format: cell-based, S. cerevisiae; conditions: for MIC80: Saccharomyces cerevisiae; for MIC: read-out: MIC (nM) C. neoformans model Y2711
Description: as §3

[21] = test system: Y570 OE CaCDR1B; assay: MIC80 determination, strain Y570; format: cell-based, S. cerevisiae; conditions: for MIC: Candida albicans, read-out: MIC (nM) C. albicans model Y570; for MIC80: Saccharomyces cerevisiae, 48 h, pH 6.8
Description: as §3

[22] = test system: Y2411 Endog. ScCYP51; assay: MIC80 determination, strain Y2411; format: cell-based, S. cerevisiae; conditions: Saccharomyces cerevisiae; for MIC80: strain Y2411 Endog. ScCYP51, SD pH 6.8, 30 °C, 48 h; for MIC: supplement csv, read-out: MIC (nM) S. cerevisiae Y2411
Description: as §3

[23] = test system: Y525 MFS efflux pump CaMDR1a overexpressed; assay: Agarose (disk) diffusion assay, strain Y525; format: cell-based, S. cerevisiae; conditions: 10 nmol/disk, 30 °C, 48 h
From the text: as §1, §2

[24] = test system: Y2300 ScCYP51 overexpressed; assay: Agarose (disk) diffusion assay, strain Y2300; format: cell-based, S. cerevisiae; conditions: 10 nmol/disk, 30 °C, 48 h
From the text: as §1, §2

Row | SMILES | zone of growth inhibition (inhibitory activity in words) [1] | zone of growth inhibition (inhibitory activity in words) [2] | MIC80 [3] [µM] | MIC [4] [nM] | MIC80 [4] [µM] | MIC80 [5] [µM] | MIC80 [7] [µM] | MIC [7] [nM] | MIC80 [8] [µM] | MIC80 [9] [µM] | MIC [9] [nM] | MIC80 [11] [µM] | MIC [11] [nM] | MIC80 [12] [µM] | MIC80 [14] [µM] | MIC [14] [nM] | MIC80 [15] [µM] | MIC [15] [nM] | MIC80 [17] [µM] | zone of growth inhibition (inhibitory activity in words) [23] | other results
1 | O=C(NCC(O)(Cn1cncn1)c1ccc(F)cc1F)c1cnc2ccccc2c1 (centres unmarked) [Compound 15, N-(2-(2,4-Difluorophenyl)-2-hydroxy-3-(1H-1,2,4-triazol-1-yl)propyl)quinoline-3-carboxamide] | showed activity | showed activity |  |  |  |  |  |  |  |  |  |  |  |  |  |  |  |  |  |  | 
2 | O=C(NCC(O)(Cn1cncn1)c1ccc(F)cc1F)c1cccc(-c2ccc(C(F)(F)F)cc2)c1 (centres unmarked) [Compound 23, N-(2-(2,4-Difluorophenyl)-2-hydroxy-3-(1H-1,2,4-triazol-1-yl)propyl)-4’-(trifluoromethyl)-[1,1’-biphenyl]-3-carboxamide] | significantly greater resistance | significantly greater resistance | 0.4 ± 0.113 | 100 | 0.1 | 13.1 | 0.06 ± 0.011 | 60 ± 11 | 0.12 | 0.069 ± 0.039 | 69 ± 39 | 0.411 ± 0.071 | 411 ± 71 | 4.25 | 0.076 ± 0.012 | 76 ± 12 | 0.44 | 440 | 0.805 ± 0.121 |  | MIC80 [6]: 0.055 ± 0.003 µM; MIC [6]: 55 ± 3 nM; MIC80 [10]: 2.57 ± 0.938 µM; MIC [13]: 150 ± 26 nM; MIC80 [13]: 0.15 ± 0.026 µM; MIC [16]: 32 ± 19 nM; MIC80 [16]: 0.032 ± 0.019 µM; MIC [17]: 805 ± 121 nM; increase in resistance owing to the CpCYP51 Y132F mutation [18]: > 19 fold; MIC80 [18]: 1.91 ± 0.02 µM; MIC80 [19]: 3.52 ± 0.209 µM; MIC80 [20]: 0.02 µM; MIC [20]: 20 nM; MIC [21]: 8100 nM; MIC80 [21]: 8.1 µM; MIC80 [22]: 0.037 ± 0.011 µM; MIC [22]: 37 ± 11 nM
3 | O=C(NCC(O)(Cn1cncn1)c1ccc(F)cc1F)c1cccc(-c2ccc(OC(F)(F)F)cc2)c1 (centres unmarked) [Compound 24, N-(2-(2,4-Difluorophenyl)-2-hydroxy-3-(1H-1,2,4-triazol-1-yl)propyl)-4’-(trifluoromethoxy)-[1,1’-biphenyl]-3-carboxamide] | significantly greater resistance | significantly greater resistance | 0.37 ± 0.042 | 85 | 0.085 | 11.8 | 0.116 ± 0.061 | 116 ± 61 | 0.12 | 0.163 ± 0.061 | 163 ± 61 | 0.419 ± 0.083 | 419 ± 83 | 3.4 | 0.168 | 168 | 0.43 | 430 | 0.719 ± 0.001 |  | MIC80 [6]: 0.094 µM; MIC [6]: 94 nM; MIC80 [10]: 1.4 µM; MIC [13]: 50 nM; MIC80 [13]: 0.05 µM; MIC [16]: 16 nM; MIC80 [16]: 0.016 µM; MIC [17]: 719 ± 1 nM; increase in resistance owing to the CpCYP51 Y132F mutation [18]: > 19 fold; MIC80 [18]: 1.75 µM; MIC80 [19]: 2.7 µM; MIC80 [20]: 0.002 µM; MIC [20]: 2 nM; MIC [21]: 17000 nM; MIC80 [21]: 17 µM; MIC80 [22]: 0.03 µM; MIC [22]: 30 nM
4 | O=C(NCC(O)(Cn1cncn1)c1ccc(F)cc1F)c1ccc(NC(=O)c2ccc(Cl)cc2)cc1 (centres unmarked) [Compound 26, 4-Chloro-N-(4-((2-(2,4-difluorophenyl)-2-hydroxy-3-(1H-1,2,4-triazol-1-yl)propyl)carbamoyl)phenyl)benzamide] |  |  | 0.95 | 208 ± 83 | 0.208 ± 0.083 | > 40 | 0.118 ± 0.003 | 118 ± 3 | 0.285 | 0.182 ± 0.03 | 182 ± 30 | 0.123 ± 0.038 | 123 ± 38 | 19.5 | 0.205 | 205 | > 1 | > 1000 | 0.087 ± 0.004 | less effective | MIC [17]: 87 ± 4 nM; MIC [21]: > 40000 nM; MIC80 [21]: > 40 µM; MIC80 [22]: 0.039 ± 0.014 µM; MIC [22]: 39 ± 14 nM
5 | O=C(NCc1ccc(-c2ccccc2)cc1)C(Cn1cncn1)c1ccc(F)cc1F (centres unmarked) [Compound 37] | low inhibitory activity | low inhibitory activity |  |  |  |  |  |  |  |  |  |  |  |  |  |  |  |  |  | low inhibitory activity | 
6 | O=C(NCc1ccc(-c2ccc(Cl)cc2)cc1)C(Cn1cncn1)c1ccc(F)cc1F (centres unmarked) [Compound 38] | low inhibitory activity | low inhibitory activity |  |  |  |  |  |  |  |  |  |  |  |  |  |  |  |  |  | low inhibitory activity | 
7 | O=C(NCc1ccc(-c2ccc(C(F)(F)F)cc2)cc1)C(Cn1cncn1)c1ccc(F)cc1F (centres unmarked) [Compound 39] | lacked inhibitory activity | lacked inhibitory activity |  |  |  |  |  |  |  |  |  |  |  |  |  |  |  |  |  | lacked inhibitory activity | 
8 | O=C(NCc1ccc(-c2ccc(OC(F)(F)F)cc2)cc1)C(Cn1cncn1)c1ccc(F)cc1F (centres unmarked) [Compound 40] | low inhibitory activity | low inhibitory activity |  |  |  |  |  |  |  |  |  |  |  |  |  |  |  |  |  | low inhibitory activity | 
9 | O=C(Nc1ccc(CNC(=O)C(Cn2cncn2)c2ccc(F)cc2F)cc1)c1cnccn1 (centres unmarked) [Compound 48, N-(4-((2-(2,4-Difluorophenyl)-3-(1H-1,2,4-triazol-1-yl)propanamido)methyl)phenyl)pyrazine-2-carboxamide] |  |  |  |  |  |  |  |  |  |  |  |  |  |  |  |  |  |  |  |  | zone of growth inhibition (inhibitory activity in words) [24]: lower inhibitory activity

Reference: publication PMC12169614, “Exploring Long Arm Amide-Linked Side Chains in the Design of Antifungal Azole Inhibitors of Sterol 14α-Demethylase (CYP51)” (Journal of Medicinal Chemistry, 2025)
